Columns and labels:
[1] = target: T1, human sphingosine-1-phosphate receptor 1 (S1P1) (Homo sapiens, UniProt P21453); test: Inhibition of cAMP production (HTRF cAMP HiRange), S1P1 CHO-K1 cells; format: cell-based; conditions: for Emax: CHO-K1, efficacy normalized to maximum efficacy of fingolimod, read-out: hS1P1 CAMP SPAN; for EC50: read-out: hS1P1 CAMP pEC50 (converted)
Outline: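 CHO-K1 cells co-expressing human S1P1 (C-terminal ProLink tag) and EA-β-arrestin2, plated overnight; after 30 min compound incubation at 37 °C, intracellular cAMP measured by HTRF TR-FRET following 1 h at room temperature. Values normalized to fingolimod.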
Target sequence in this assay (P21453 whole entry): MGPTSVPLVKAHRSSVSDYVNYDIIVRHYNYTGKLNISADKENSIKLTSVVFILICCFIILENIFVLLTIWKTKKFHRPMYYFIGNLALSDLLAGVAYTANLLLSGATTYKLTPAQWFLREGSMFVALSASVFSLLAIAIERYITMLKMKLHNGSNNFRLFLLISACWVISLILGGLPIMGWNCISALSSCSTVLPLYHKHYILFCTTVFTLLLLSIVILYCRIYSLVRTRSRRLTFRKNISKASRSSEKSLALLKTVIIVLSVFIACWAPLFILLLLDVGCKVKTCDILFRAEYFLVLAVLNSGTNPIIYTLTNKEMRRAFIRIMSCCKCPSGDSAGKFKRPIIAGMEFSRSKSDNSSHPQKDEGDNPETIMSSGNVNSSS

[2] = target: T1, human sphingosine-1-phosphate receptor 1 (S1P1); test: β-Arrestin2 recruitment assay (PathHunter), S1P1 CHO-K1 cells; format: cell-based; conditions: for Emax: efficacy normalized to maximum efficacy of fingolimod, read-out: hS1P1 B-arrestin2 SPAN; for EC50: β-arrestin2 recruitment, read-out: hS1P1 B-arrestin2 pEC50 (converted)
Outline: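 CHO-K1 cells co-expressing EA-β-arrestin2 and ProLink-tagged human S1P1 plated overnight, then stimulated 60 min at 37 °C. Enzyme-fragment complementation (β-galactosidase) detected after 1 h at room temperature by luminescence; values normalized to fingolimod.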
Target sequence in this assay (P21453 whole entry): as above
Target sequence in this assay (P32121 whole entry partner): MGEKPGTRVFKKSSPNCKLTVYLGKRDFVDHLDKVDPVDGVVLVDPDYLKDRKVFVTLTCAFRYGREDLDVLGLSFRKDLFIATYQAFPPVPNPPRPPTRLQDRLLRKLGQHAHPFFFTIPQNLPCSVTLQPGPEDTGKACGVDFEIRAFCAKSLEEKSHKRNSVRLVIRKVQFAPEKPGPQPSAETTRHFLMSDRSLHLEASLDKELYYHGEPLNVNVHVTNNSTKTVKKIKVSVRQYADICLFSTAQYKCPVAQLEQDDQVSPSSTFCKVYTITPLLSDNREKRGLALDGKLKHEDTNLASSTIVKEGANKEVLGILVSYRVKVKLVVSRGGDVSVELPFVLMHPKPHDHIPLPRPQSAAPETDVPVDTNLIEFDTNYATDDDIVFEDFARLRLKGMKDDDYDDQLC

[3] = inhibition of cAMP production, S1P1
[4] = inhibition of cAMP production, potency
[5] = CHO-K1, β-arrestin2 recruitment

SMILES	Emax [1]	EC50 [1, 3]	Emax ([2]; CHO-K1)	EC50 ([2]; S1P1)	Emax ([1]; inhibition of cAMP production)	EC50 [1, 4]	Emax [2, 5]	EC50 ([2]; potency)
CC(C)(CO)Cn1nnc2cc(-c3noc(-c4ccncc4C(F)(F)F)n3)ccc21 [Compound 528, 2,2-dimethyl-3-(5-(5-(3-(trifluoro-methyl)pyridin-4-yl)-1,2,4-oxadiazol-3-yl)-1H-benzo[d][1,2,3]triazol-1-yl)propan-1-ol]	> 75%	> 0.316 µM	< 75%	> 10 µM				
O=C1c2cc(-c3nc(-c4ccncc4)no3)ccc2OC(CO)(CO)C1Br (stereo not shown) [Compound 483, 3-bromo-2,2-bis(hydroxy-methyl)-6-[3-(pyridin-4-yl)-1,2,4-oxadiazol-5-yl]-3,4-dihydro-2H-1-benzopyran-4-one]	> 75%	> 0.316 µM	< 75%	> 10 µM				
CC(C)Nc1ccc(-c2nnc(-c3ccc4c(c3)ncn4CCO)o2)cc1C#N [Compound 574, 5-{5-[1-(2-hydroxy-ethyl)-1H-1,3-benzodiazol-5-yl]-1,3,4-oxadiazol-2-yl}-2-[(propan-2-yl)amino]benzonitrile]	> 75%	> 0.316 µM	> 75%	> 10 µM				
COc1ccccc1-c1cnc(-c2ccc3c(c2)nnn3C(C)C)nc1 [Compound 565, 1-isopropyl-5-(5-(2-methoxyphenyl)pyrimidin-2-yl)-1H-benzo[d][1,2,3]triazole]	> 75%	< 0.316 µM	> 75%	< 10 µM				
COc1ccc(-c2nc(-c3ccc4c(c3)nnn4CC(C)(C)CO)no2)c(C)c1 [Compound 523, 3-(5-(5-(4-methoxy-2-methylphenyl)-1,2,4-oxadiazol-3-yl)-1H-benzo[d][1,2,3]triazol-1-yl)-2,2-dimethyl-propan-1-ol]	> 75%	> 0.316 µM	> 75%	> 10 µM				
Cc1cc(C)cc(-c2noc(-c3ccc4c(c3)nnn4C3CCOCC3)n2)c1 [Compound 93, 5-[3-(3,5-dimethyl-phenyl)-1,2,4-oxadiazol-5-yl]-1-(oxan-4-yl)-1H-1,2,3-benzotriazole]					< 75%	> 0.316 µM	> 75%	> 10 µM
Cc1ccc2nc(-c3ccc4c(c3)nnn4CC(C)C)oc2c1 [Compound 448, 2-(1-isobutyl-1H-benzo[d][1,2,3]triazol-5-yl)-6-methyl-benzo[d]oxazole]	> 75%	> 0.316 µM	< 75%	> 10 µM				
CCC1(CC)CC(=O)c2cc(-c3nc(-c4ccc(C)nc4)no3)ccc2O1 [Compound 550, 2,2-diethyl-6-(3-(6-methylpyridin-3-yl)-1,2,4-oxadiazol-5-yl)chroman-4-one]	> 75%	> 0.316 µM	< 75%	< 10 µM				
CCC1(CC)CC(=O)c2cc(-c3nc(-c4cncc(C)c4)no3)ccc2O1 [Compound 563, 2,2-diethyl-6-(3-(5-methylpyridin-3-yl)-1,2,4-oxadiazol-5-yl)chroman-4-one]	> 75%	< 0.316 µM	< 75%	< 10 µM				
CCC1(CC)CC(=O)c2cc(-c3nc(-c4cccc(C)c4)no3)ccc2O1 [Compound 225, 2,2-diethyl-6-(3-(m-tolyl)-1,2,4-oxadiazol-5-yl)chroman-4-one]					> 75%	> 0.316 µM	< 75%	< 10 µM
N#Cc1cc(-c2nnc(-c3ccc4[nH]c(=O)oc4c3)o2)ccc1NCC(F)F [Compound 488, 2-[(2,2-difluoro-ethyl)amino]-5-[5-(2-oxo-2,3-dihydro-1,3-benzoxazol-6-yl)-1,3,4-oxadiazol-2-yl]benzonitrile]	< 75%	< 0.316 µM	> 75%	< 10 µM				
O=C1CC2(CCC(F)(F)CC2)Oc2ccc(-c3nc(-c4ccncc4)no3)cc21 [Compound 217, 4′,4′-difluoro-6-[3-(pyridin-4-yl)-1,2,4-oxadiazol-5-yl]-3,4-dihydrospiro[1-benzopyran-2,1′-cyclohexane]-4-one]					< 75%	> 0.316 µM	< 75%	> 10 µM
CC(C)Nc1ccc(-c2nnc(-c3ccc4oc(=O)[nH]c4c3)o2)cc1C#N [Compound 637, 5-[5-(2-oxo-2,3-dihydro-1,3-benzoxazol-5-yl)-1,3,4-oxadiazol-2-yl]-2-[(propan-2-yl)amino]benzonitrile]	> 75%	< 0.316 µM	> 75%	< 10 µM				
CCC1(CC)CC(=O)c2cc(-c3nc(-c4sccc4OC)no3)ccc2O1 [Compound 604, 2,2-diethyl-6-(3-(3-methoxythiophen-2-yl)-1,2,4-oxadiazol-5-yl)chroman-4-one]	> 75%	< 0.316 µM	> 75%	< 10 µM				
CCC1(CC)CC(=O)c2cc(-c3nc(-c4cccnn4)no3)ccc2O1 [Compound 621, 2,2-diethyl-6-(3-(pyridazin-3-yl)-1,2,4-oxadiazol-5-yl)chroman-4-one]	> 75%	> 0.316 µM	> 75%	> 10 µM				

Results, then the molecule that gave them:

Emax [1]	EC50 [1, 3]	Emax ([2]; CHO-K1)	EC50 ([2]; S1P1)	Emax ([1]; inhibition of cAMP production)	EC50 [1, 4]	Emax [2, 5]	EC50 ([2]; potency)	SMILES
> 75%	> 0.316 µM	> 75%	> 10 µM					CCC1(CC)C/C(=N/O)c2cc(-c3nc(-c4cccnc4)no3)ccc2O1 [Compound 430, N-[(4Z)-2,2-diethyl-6-[3-(pyridin-3-yl)-1,2,4-oxadiazol-5-yl]-3,4-dihydro-2H-1-benzopyran-4-ylidene]hydroxylamine]
< 75%	> 0.316 µM	< 75%	> 10 µM					COc1ccc(-c2nc(-c3ccc4c(ccn4C(C)C)c3)no2)cc1 [Compound 393, 3-(1-isopropyl-1H-indol-5-yl)-5-(4-methoxyphenyl)-1,2,4-oxadiazole]
> 75%	< 0.316 µM	> 75%	< 10 µM					Cc1ccccc1-c1noc(-c2cnc3c(c2)nnn3C(C)C)n1 [Compound 382, 3-(2-methylphenyl)-5-[3-(propan-2-yl)-3H-[1,2,3]triazolo[4,5-b]pyridin-6-yl]-1,2,4-oxadiazole]
< 75%	> 0.316 µM	> 75%	> 10 µM					CC(C)n1ccc2cc(-c3noc(-c4cccnc4)n3)ccc21 [Compound 396, 3-(1-isopropyl-1H-indol-5-yl)-5-(pyridin-3-yl)-1,2,4-oxadiazole]
< 75%	> 0.316 µM	< 75%	> 10 µM					CCCCC1CC(=O)c2ccc(-c3nc(-c4cccnc4)no3)cc2O1 (stereo not shown) [Compound 633, 2-butyl-7-[3-(pyridin-3-yl)-1,2,4-oxadiazol-5-yl]-3,4-dihydro-2H-1-benzopyran-4-one]
> 75%	< 0.316 µM	> 75%	< 10 µM					Cc1cnccc1-c1noc(-c2ccc3c(c2)nnn3CC(C)(C)O)n1 [Compound 597, 2-methyl-1-{5-[3-(3-methylpyridin-4-yl)-1,2,4-oxadiazol-5-yl]-1H-1,2,3-benzotriazol-1-yl}propan-2-ol]
				< 75%	> 0.316 µM	< 75%	> 10 µM	CC(C)n1nnc2cc(-c3nc(-c4ccc(COc5ccccc5)cc4)no3)ccc21 [Compound 49, 5-{3-[4-(phenoxy-methyl)phenyl]-1,2,4-oxadiazol-5-yl}-1-(propan-2-yl)-1H-1,2,3-benzotriazole]
